Measured values: PubChem BioAssay AID330 (DTP/NCI, 2004)
Several values for one entry are separate records, joined by “and”; a condition that tells them apart may be missing. Equal entries are not always repeated. Inconclusive results and toxic doses are left out. How the source made its calls: active means survival T/C of 150% or more; inactive means T/C below 125% in these data.

System: P388 leukemia ip, CD2F1 mice, survival T/C
Test: NCI In Vivo Anticancer Drug Screen. Data for tumor model P388 Leukemia (intraperitoneal) in CD2F1 (CDF1) mice
Conditions: endpoint: median survival time, higher = longer survival
In short: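 Mice carrying the transplanted tumor received test compound or vehicle. Survival was recorded in each group, and the value is the treated-group measurement divided by that of the vehicle-treated control group.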

[1] = dose: 50.0 mg/kg/injection, schedule: Q01DX009 (ip), vehicle: Klucel (hydroxypropylcellulose) (HPC)
[2] = dose: 100.0 mg/kg/injection, schedule: Q01DX009 (ip), vehicle: Klucel (hydroxypropylcellulose) (HPC)
[3] = dose: 200.0 mg/kg/injection, schedule: Q01DX009 (ip), vehicle: Klucel (hydroxypropylcellulose) (HPC)
[4] = dose: 50.0 mg/kg/injection, schedule: Q01DX005 (ip), vehicle: saline with Tween-80
[5] = dose: 100.0 mg/kg/injection, schedule: Q01DX005 (ip), vehicle: saline with Tween-80
[6] = dose: 25.0 mg/kg/injection, schedule: Q01DX005 (ip), vehicle: saline with Tween-80
[7] = dose: 12.5 mg/kg/injection, schedule: Q01DX009 (ip), vehicle: saline with Tween-80
[8] = dose: 25.0 mg/kg/injection, schedule: Q01DX009 (ip), vehicle: saline with Tween-80
[9] = dose: 50.0 mg/kg/injection, schedule: Q01DX009 (ip), vehicle: saline with Tween-80
[10] = dose: 200.0 mg/kg/injection, schedule: Q01DX005 (ip), vehicle: saline with Tween-80
[11] = dose: 3.13 mg/kg/injection, schedule: Q01DX009 (ip), vehicle: saline with Tween-80
[12] = dose: 6.25 mg/kg/injection, schedule: Q01DX009 (ip), vehicle: saline with Tween-80

Measured: T/C

Cc1c(N2CCCC2)cc2c(c1NC(=O)c1ccccc1Cl)C(C)(C)CC2(C)C
inactive: [1] 99 % of control | [2] 100 % of control | [3] 99 % of control

O/N=C/c1cccc(O)c1O
inactive: [4] 96 % of control | [5] 107 % of control

CC1(c2ccccc2)CCCC(C#N)C1=N (configuration not stated)
inactive: dose: 12.5 mg/kg/injection, schedule: Q01DX001 (ip), vehicle: Klucel (hydroxypropylcellulose) (HPC) 106 % of control | dose: 25.0 mg/kg/injection, schedule: Q01DX001 (ip), vehicle: Klucel (hydroxypropylcellulose) (HPC) 100 % of control | dose: 50.0 mg/kg/injection, schedule: Q01DX001 (ip), vehicle: Klucel (hydroxypropylcellulose) (HPC) 103 % of control

CN1[C@H]2CC[C@@H]1[C@@H](O)CC2
inactive: [6] 97 % of control | [4] 97 % of control | [5] 91 % of control

CCCCCCCCCCCCCCCC[N+](C)(C)CCNC(C)=O
inactive: [7] 100 % of control | [8] 102 % of control | [9] 90 % of control

C#CCN(CC#C)S(=O)(=O)c1ccc(C)cc1
inactive: dose: 50.0 mg/kg/injection, schedule: Q01DX009 (ip), vehicle: saline 104 % of control | dose: 100.0 mg/kg/injection, schedule: Q01DX009 (ip), vehicle: saline 108 % of control | dose: 200.0 mg/kg/injection, schedule: Q01DX009 (ip), vehicle: saline 108 % of control

O=[N+]([O-])c1ccc(SSc2ccc([N+](=O)[O-])cn2)nc1
inactive: [8] 104 % of control | [9] 86 % of control | dose: 100.0 mg/kg/injection, schedule: Q01DX009 (ip), vehicle: saline with Tween-80 95 % of control

O=C(CNNC(=O)OCc1ccccc1)OCc1ccccc1
inactive: dose: 12.5 mg/kg/injection, schedule: Q01DX009 (ip), vehicle: other 95 % of control | dose: 25.0 mg/kg/injection, schedule: Q01DX009 (ip), vehicle: other 99 % of control | dose: 50.0 mg/kg/injection, schedule: Q01DX009 (ip), vehicle: other 93 % of control | dose: 100.0 mg/kg/injection, schedule: Q01DX009 (ip), vehicle: other 96 % of control

N#CC1N(C(=O)Oc2ccccc2)c2ccccc2N1C(=O)Oc1ccccc1
inactive: dose: 7.5 mg/kg/injection, schedule: Q01DX005 (ip), vehicle: saline with Tween-80 92 % of control | dose: 15.0 mg/kg/injection, schedule: Q01DX005 (ip), vehicle: saline with Tween-80 91 % of control

O=C1CCc2nc3ccccc3c(=O)n21
inactive: [1] 96 % of control | [2] 96 % of control | [3] 94 % of control | dose: 400.0 mg/kg/injection, schedule: Q01DX009 (ip), vehicle: Klucel (hydroxypropylcellulose) (HPC) 100 % of control

CC(=O)CC(c1ccccc1)c1c(O)c2ccccc2oc1=O (configuration not stated)
inactive: dose: 0.02 mg/kg/injection, schedule: Q01DX009 (ip), vehicle: Klucel (hydroxypropylcellulose) (HPC) 93 % of control and 96 % of control | dose: 0.05 mg/kg/injection, schedule: Q01DX009 (ip), vehicle: Klucel (hydroxypropylcellulose) (HPC) 100 % of control | dose: 0.05 mg/kg/injection, schedule: Q01DX009 (ip), vehicle: saline 99 % of control | dose: 0.06 mg/kg/injection, schedule: Q01DX009 (ip), vehicle: other 99 % of control | dose: 0.1 mg/kg/injection, schedule: Q01DX009 (ip), vehicle: Klucel (hydroxypropylcellulose) (HPC) 96 % of control and 97 % of control | dose: 0.1 mg/kg/injection, schedule: Q01DX009 (ip), vehicle: saline 96 % of control | dose: 0.13 mg/kg/injection, schedule: Q01DX009 (ip), vehicle: other 92 % of control | dose: 0.2 mg/kg/injection, schedule: Q01DX009 (ip), vehicle: Klucel (hydroxypropylcellulose) (HPC) 95 % of control and 96 % of control | dose: 0.2 mg/kg/injection, schedule: Q01DX009 (ip), vehicle: saline 109 % of control and 92 % of control | dose: 0.25 mg/kg/injection, schedule: Q01DX009 (ip), vehicle: other 95 % of control | dose: 0.4 mg/kg/injection, schedule: Q01DX009 (ip), vehicle: Klucel (hydroxypropylcellulose) (HPC) 91 % of control and 95 % of control | dose: 0.4 mg/kg/injection, schedule: Q01DX009 (ip), vehicle: saline 98 % of control and 90 % of control | dose: 0.5 mg/kg/injection, schedule: Q01DX009 (ip), vehicle: saline with Tween-80 97 % of control | dose: 0.8 mg/kg/injection, schedule: Q01DX009 (ip), vehicle: saline 101 % of control and 91 % of control | dose: 1.0 mg/kg/injection, schedule: Q01DX001 (ip), vehicle: saline + alcohol 101 % of control | dose: 1.0 mg/kg/injection, schedule: Q01DX009 (ip), vehicle: saline with Tween-80 93 % of control | dose: 2.0 mg/kg/injection, schedule: Q01DX001 (ip), vehicle: saline + alcohol 101 % of control | dose: 4.0 mg/kg/injection, schedule: Q01DX001 (ip), vehicle: saline + alcohol 95 % of control | dose: 4.0 mg/kg/injection, schedule: Q04HX002 (ip), vehicle: saline with Tween-80 96 % of control | dose: 8.0 mg/kg/injection, schedule: Q04HX002 (ip), vehicle: saline with Tween-80 99 % of control and 86 % of control | dose: 16.0 mg/kg/injection, schedule: Q04HX002 (ip), vehicle: saline with Tween-80 106 % of control and 96 % of control

CC(=O)OC(C)/C=C\C#N (configuration not stated)
inactive: dose: 15.0 mg/kg/injection, schedule: Q01DX005 (ip), vehicle: saline 98 % of control and 104 % of control and 86 % of control | dose: 30.0 mg/kg/injection, schedule: Q01DX005 (ip), vehicle: saline 98 % of control and 100 % of control and 96 % of control

Fc1cccc2c(C#Cc3ccccc3)c3ccccc3c(C#Cc3ccccc3)c12
inactive: dose: 1.5 mg/kg/injection, schedule: Q01DX005 (ip), vehicle: saline with Tween-80 100 % of control | dose: 3.0 mg/kg/injection, schedule: Q01DX005 (ip), vehicle: saline with Tween-80 100 % of control | dose: 6.0 mg/kg/injection, schedule: Q01DX005 (ip), vehicle: saline with Tween-80 97 % of control | [6] 92 % of control | [5] 94 % of control | [10] 87 % of control

CCCCCCCCCCCCOC(=O)c1ccc(N)cc1
inactive: [1] 98 % of control | [2] 101 % of control | [3] 95 % of control

COc1nncc(-c2cnnc(OC)n2)n1
inactive: [11] 105 % of control | [12] 100 % of control | [7] 102 % of control

Cc1c2oc3c(C)ccc(C(=O)NC(C(=O)NC(C(=O)NCCO)C(C)C)C(C)O)c3nc-2c(C(=O)NC(C(=O)NC(C(=O)NCCO)C(C)C)C(C)O)c(N)c1=O (configuration not stated)
inactive: dose: 0.05 mg/kg/injection, schedule: Q01DX009 (ip), vehicle: water 99 % of control | dose: 0.1 mg/kg/injection, schedule: Q01DX009 (ip), vehicle: water 100 % of control | dose: 0.2 mg/kg/injection, schedule: Q01DX009 (ip), vehicle: water 100 % of control | dose: 0.4 mg/kg/injection, schedule: Q01DX009 (ip), vehicle: water 97 % of control | dose: 0.8 mg/kg/injection, schedule: Q01DX009 (ip), vehicle: water 98 % of control | dose: 1.6 mg/kg/injection, schedule: Q01DX009 (ip), vehicle: water 88 % of control and 94 % of control | dose: 3.2 mg/kg/injection, schedule: Q01DX009 (ip), vehicle: water 92 % of control | dose: 6.4 mg/kg/injection, schedule: Q01DX009 (ip), vehicle: water 110 % of control | dose: 12.8 mg/kg/injection, schedule: Q01DX009 (ip), vehicle: water 97 % of control

Cc1nc2ccccc2c(=O)n1/N=C/c1cccc([N+](=O)[O-])c1
inactive: [4] 104 % of control | [5] 99 % of control | [10] 98 % of control

O=C(Nc1cccc2ccccc12)N1c2ccccc2SC12CCCC2
inactive: dose: 1.56 mg/kg/injection, schedule: Q01DX009 (ip), vehicle: saline with Tween-80 104 % of control | [11] 100 % of control | [12] 99 % of control and 94 % of control

CSC(=S)/N=c1\ccc(C)cn1C
inactive: dose: 12.5 mg/kg/injection, schedule: Q04DX002 (ip), vehicle: saline with Tween-80 100 % of control | dose: 25.0 mg/kg/injection, schedule: Q04DX002 (ip), vehicle: saline with Tween-80 100 % of control | dose: 50.0 mg/kg/injection, schedule: Q04DX002 (ip), vehicle: saline with Tween-80 99 % of control

C=C1C[C@@H](O)[C@H](O)[C@@]2(C)C[C@@H]3OC(=O)C(=C)[C@@H]3C[C@H]12
inactive: dose: 3.12 mg/kg/injection, schedule: Q01DX009 (ip), vehicle: saline 103 % of control | dose: 6.25 mg/kg/injection, schedule: Q01DX009 (ip), vehicle: saline 104 % of control and 119 % of control | dose: 12.5 mg/kg/injection, schedule: Q01DX009 (ip), vehicle: saline 104 % of control and 113 % of control | dose: 25.0 mg/kg/injection, schedule: Q01DX009 (ip), vehicle: saline 122 % of control
